Measured values from patent publication US8846001B2 (GE Healthcare Limited, priority 2009, dated 2014).

Experiments:
porcine islets = porcine islets in vitro; cited from earlier work
avidin = target: T1, avidin (Gallus gallus, UniProt P02701); assay: Avidin binding saturation in solution, percentage binding determined by HPLC; conditions: 2-128 nmol ligand, 2 nmol avidin, 5 min, room temperature
T1 construct: avidin (lyophilised powder, from egg white); purchased Sigma-Aldrich; host or cells: egg white
T1 sequence (P02701 25-152): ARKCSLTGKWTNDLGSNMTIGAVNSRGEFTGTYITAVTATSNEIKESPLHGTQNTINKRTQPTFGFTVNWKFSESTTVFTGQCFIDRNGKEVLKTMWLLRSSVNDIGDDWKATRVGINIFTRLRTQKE
Procedure: The percentage binding was determined by HPLC analysis.
The incubation was carried out during 5 min at room temperature with varied ligand concentration resulting in ligand/avidin ratio of 0.25, 1, 4 and 16. Data are presented as mean±SD (n=2). […] The specific binding presented as the avidin consumption in percentage was plotted against the ratio of total molar concentration of added ligands and avidin. The result was analyzed by nonlinear regression using the GraphPad Prism Software.

SMILES: OC[C@H]1OC(O)[C@H]([18F])[C@@H](O)[C@@H]1O (some centres unmarked) [[^18F]FDG]
- half-life of retention (porcine islets): 2.358 h

SMILES: O=C(O)CCCC[C@@H]1SC[C@@H]2NC(=O)N[C@@H]21 [Biotin, 5-[(3aS,4S,6aR)-2-oxohexahydro-1H-thieno[3,4-d]imidazol-4-yl]pentanoic acid]
- binding to avidin in solution (in words) (avidin): highest binding
